Patent US20230321265A1, “KAPPA OPIOID RECEPTOR AGONIST-THERAPEUTIC ANTIGEN BINDING PROTEIN CONJUGATE (KTAC) COMPOUNDS” (Cara Therapeutics, Inc., priority 2020, published 2023)
Marks after values point to notes of the source that are not given here.

What was measured:
[1] = tested on: human rheumatoid arthritis (RA) synoviocytes; assay: TNF-alpha release from human rheumatoid arthritis synoviocytes stimulated with interferon-gamma and anti-CD40 antibody; conditions: 48 hour period
Experimental: Concentrations of TNF-alpha are then measured in tissue culture supernatants by multiplex immunoassay.

[2] = tested on: Human monocyte-derived macrophages; assay: Cytokine release from LPS/IFN-γ stimulated human monocyte-derived macrophages (multiplex immunoassay); assay type: cell-based
Experimental: Human monocyte-derived macrophages were stimulated with lipopolysaccharide (LPS) and interferon gamma (IFN-γ) in the presence and absence of CR845 or interleukin-10 (IL-10; 10 ng/mL). Cytokine release in the 18-hour supernatants was measured by multiplex immunoassay (N=4 donors per condition, with assays run in triplicate), with results expressed as mean cytokine release (± SEM) following stimulation with LPS and IFN-γ. […] The minimum effective concentration was 2.0 nM, which was the lowest concentration tested (see Table 1).
Statistical comparisons: *, P<0.05; **, P<0.01; ***, P<0.001 compared with LPS/IFN-γ alone; ##, P<0.001 compared with LPS/IFN-γ + CR845 at 50 nM §, P<0.05 compared with LPS/IFN-γ + CR845 at 50 nM; ¶, P<0.005 compared with LPS/IFN-γ; ¶¶, P<0.001 compared with LPS/IFN-γ

LPS-induced TNF release = assay: LPS-induced serum TNF-alpha in mice (ELISA); assay type: in vivo, female Balb/c mice; conditions: 3 and 10 mg/kg SC, 30 min before LPS 1 mg/kg IP, serum 2 hours post-LPS
Experimental: FIG. 5 Reduction in LPS-induced TNF release in Mice Pretreated with SC CR845 at 1, 3 and 10 mg/kg; and separately showing a comparison of the effect of prednisone as compared with vehicle alone.
Thirty minutes later, mice were injected IP with the bacterial lipopolysaccharide (LPS, 1 mg/kg) and serum samples collected 2 hours post-LPS treatment (n = 8/group). TNF-alpha levels in serum were determined by ELISA.

[3] = tested on: LPS-Induced Cytokine Release; assay: LPS-induced cytokine release in mice (Luminex); assay type: in vivo, female Balb/c mice; conditions: 30 min before LPS 1 mg/kg IP, serum 2 hr post-LPS
From the text: Data were summarized as percent reduction from vehicle-treated controls (n = 8/group). (*p<0.05 vs. vehicle; unpaired t-test).

[4] = tested on: carrageenan-induced paw swelling; assay: Carrageenan-induced paw edema in rats; assay type: in vivo, male SD rats
Experimental: FIG. 6: Intravenous CR845 Produces Dose-Dependent Inhibition of Carrageenan-Induced Paw Edema Formation in Rats: Chart showing paw volume after administration of vehicle alone, or vehicle plus 0.1, 0.3 or 1.0 mg/kg CR845.
In a rat model of inflammatory disease, intraplantar injection of carrageenan in one hind paw is commonly used to produce acute inflammation, resulting in the swelling of the inoculated paw (Stein, Millan et al. 1988). Animals were administered CR845 IV (tail vein, 1 mL/kg) 30 min prior to intraplantar carrageenan administration (100 µL 2% carrageenan into left hind paw; n=6/group). Paw volumes were assessed 3.5 hr post treatment (i.e., 3 hr post-carrageenan injection).

[5] = LPS/IFNγ stimulated, CR845 50 nM, 18-hour supernatant, mean (SEM)
[6] = LPS/IFNγ stimulated, nor-BNI 10 nM alone, mean (SEM)

CCCC1O[C@@H]2C[C@H]3[C@@H]4CCC5=CC(=O)C=C[C@]5(C)[C@H]4[C@@H](O)C[C@]3(C)[C@]2(C(=O)CO)O1 (stereo partly shown) [budesonide]
TNF-alpha release (CD-40/interferon-gamma stimulated release standardized to 100) ([1]; positive control, concentration not given): -25

CC(C)C[C@@H](NC(=O)[C@@H](Cc1ccccc1)NC(=O)[C@H](N)Cc1ccccc1)C(=O)N[C@H](CCCCN)C(=O)N1CCC(N)(C(=O)O)CC1 [CR845, D-Phe-D-Phe-D-Leu-D-Lys-[ω(4-aminopiperidine-4carboxylic acid)]-OH]
IL-6 release ([2]; LPS/IFNγ stimulated, CR845 10 nM, 18-hour supernatant, mean (SEM)): 398.0 (108.4) pg/mL
IL-6 release [2, 5]: 563.7 (53.9) pg/mL
IL-8 release [2, 5]: 1211 (56.7) pg/mL
minimum effective concentration for reduction of cytokine secretion ([2]; lowest concentration tested): 2.0 nM
secretion of TNF, IL-1β, IL-6, IL-8 and GCSF following stimulation with LPS and IFN-γ ([2]; primary human macrophages, vs. vehicle): significantly reduced
serum TNF-alpha suppression (LPS-induced TNF release): dose-dependent suppression of TNF-alpha that is statistically significant
GM-CSF % Inhibition ([3]; CR845 10 mg/kg SC): 7%
IL-1α % Inhibition ([3]; CR845 10 mg/kg SC): -37%
IL-1β % Inhibition ([3]; CR845 10 mg/kg SC): 26* %
IL-2 % Inhibition ([3]; CR845 10 mg/kg SC): 23* %
IL-4 % Inhibition ([3]; CR845 10 mg/kg SC): 21%
IL-6 % Inhibition ([3]; CR845 10 mg/kg SC): -10%
IL-10 % Inhibition ([3]; CR845 10 mg/kg SC): 26%
IL-12 (p40/p70) % Inhibition ([3]; CR845 10 mg/kg SC): 23* %
MCP-1 % Inhibition ([3]; CR845 10 mg/kg SC): -11%
MIP-1α % Inhibition ([3]; CR845 10 mg/kg SC): 19%
MIP-1β % Inhibition ([3]; CR845 10 mg/kg SC): 19* %
TNFα % Inhibition ([3]; CR845 10 mg/kg SC): 47* %
minimum effective IV dose for reduction of carrageenan-induced paw swelling ([4]; IV 30 min prior to carrageenan, paw volume at 3.5 hr post-injection): 0.3 mg/kg
carrageenan-induced paw swelling ([4]; IV, 0.1, 0.3 or 1.0 mg/kg, vs. vehicle): significantly reduces carrageenan-induced paw swelling
TNF-alpha release (CD-40/interferon-gamma stimulated release standardized to 100) ([1]; 0.1 nM): 20
TNF-alpha release (CD-40/interferon-gamma stimulated release standardized to 100) ([1]; 0.3 nM): -25

C[C@]12C=CC(=O)C=C1CC[C@@H]1[C@@H]2[C@@H](O)C[C@@]2(C)[C@H]1CC[C@]2(O)C(=O)CO [Prednisolone, prednisolone]
IL-1α % Inhibition ([3]; Prednisolone 3 mg/kg SC): 50* %
IL-1β % Inhibition ([3]; Prednisolone 3 mg/kg SC): 39* %
IL-2 % Inhibition ([3]; Prednisolone 3 mg/kg SC): 24* %
IL-4 % Inhibition ([3]; Prednisolone 3 mg/kg SC): 41* %
IL-6 % Inhibition ([3]; Prednisolone 3 mg/kg SC): -2%
IL-10 % Inhibition ([3]; Prednisolone 3 mg/kg SC): 59* %
IL-12 (p40/p70) % Inhibition ([3]; Prednisolone 3 mg/kg SC): 45* %
MCP-1 % Inhibition ([3]; Prednisolone 3 mg/kg SC): -14%
MIP-1α % Inhibition ([3]; Prednisolone 3 mg/kg SC): 35* %
MIP-1β % Inhibition ([3]; Prednisolone 3 mg/kg SC): 19* %
TNFα % Inhibition ([3]; Prednisolone 3 mg/kg SC): 64* %

Oc1ccc2c3c1O[C@H]1c4[nH]c5c(c4C[C@@]4(O)[C@@H](C2)N(CC2CC2)CC[C@]314)C[C@@]1(O)[C@H]2Cc3ccc(O)c4c3[C@@]1(CCN2CC1CC1)[C@H]5O4 [nor-BNI]
G-CSF release [2, 6]: 1214 (29.9) pg/mL
IL-1 release [2, 6]: 39.9 (1.1) pg/mL
IL-6 release [2, 6]: 803.9 (0.6) pg/mL
IL-8 release [2, 6]: 1595 (13.3) pg/mL
TNF release [2, 6]: 7186 (174.8) pg/mL
effect of nor-BNI on the cytokine-reducing effect of CR845 ([2]; selective kappa opioid antagonist added to CR845): blocked
